Experiments:
[1] = molecular target: T1, Aurora kinase C (Homo sapiens) (UniProt Q9UQB9); test: Selectivity interaction (KinomeScan (DiscoverX)) EUB0001049a AURKC; details: at 1 µM
T1 sequence (whole entry): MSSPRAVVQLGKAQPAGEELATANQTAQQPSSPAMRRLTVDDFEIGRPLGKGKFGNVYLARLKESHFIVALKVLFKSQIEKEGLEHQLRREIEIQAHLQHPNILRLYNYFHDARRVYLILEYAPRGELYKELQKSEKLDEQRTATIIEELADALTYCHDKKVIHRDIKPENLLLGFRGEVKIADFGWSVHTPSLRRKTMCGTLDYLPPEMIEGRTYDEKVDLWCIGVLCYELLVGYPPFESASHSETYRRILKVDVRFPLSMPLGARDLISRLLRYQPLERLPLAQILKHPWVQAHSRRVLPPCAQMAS

[2] = molecular target: Wee1-like protein kinase 2 (Homo sapiens) (UniProt P0C1S8); test: Selectivity interaction (KinomeScan (DiscoverX)) EUB0000666a WEE2; details: at 10 µM
[3] = molecular target: Ribosomal protein S6 kinase alpha-5 (Homo sapiens) (UniProt O75582); test: Selectivity interaction (KinomeScan (DiscoverX)) EUB0000666a RPS6KA5; details: at 10 µM
Ribosomal protein S6 kinase alpha-5 (Homo sapiens), sequence (O75582 whole entry, looked up): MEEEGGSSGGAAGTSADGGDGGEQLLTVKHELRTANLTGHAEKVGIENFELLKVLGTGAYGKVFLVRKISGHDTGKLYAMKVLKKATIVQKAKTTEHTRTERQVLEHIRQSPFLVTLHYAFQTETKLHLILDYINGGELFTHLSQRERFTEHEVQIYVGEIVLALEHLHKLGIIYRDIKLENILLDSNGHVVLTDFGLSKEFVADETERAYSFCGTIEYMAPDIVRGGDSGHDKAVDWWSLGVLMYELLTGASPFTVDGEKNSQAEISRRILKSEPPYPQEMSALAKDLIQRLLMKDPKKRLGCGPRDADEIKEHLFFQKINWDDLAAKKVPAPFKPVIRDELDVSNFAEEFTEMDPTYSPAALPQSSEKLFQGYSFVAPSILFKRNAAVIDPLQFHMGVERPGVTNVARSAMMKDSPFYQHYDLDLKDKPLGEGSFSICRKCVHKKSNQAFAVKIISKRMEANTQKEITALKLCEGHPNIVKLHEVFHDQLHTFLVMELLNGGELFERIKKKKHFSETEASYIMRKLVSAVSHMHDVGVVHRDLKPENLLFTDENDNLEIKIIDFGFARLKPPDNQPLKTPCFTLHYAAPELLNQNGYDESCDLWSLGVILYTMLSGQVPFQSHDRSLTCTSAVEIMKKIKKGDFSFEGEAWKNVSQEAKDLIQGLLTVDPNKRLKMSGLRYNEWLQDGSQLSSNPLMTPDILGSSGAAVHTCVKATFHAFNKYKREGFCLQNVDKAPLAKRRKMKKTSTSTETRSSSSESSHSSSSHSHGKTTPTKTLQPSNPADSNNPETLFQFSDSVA

[4] = molecular target: Histone-lysine N-methyltransferase, H3 lysine-36 specific (Homo sapiens) (UniProt Q96L73); details: at 10 µM
Histone-lysine N-methyltransferase, H3 lysine-36 specific (Homo sapiens), sequence (Q96L73 whole entry): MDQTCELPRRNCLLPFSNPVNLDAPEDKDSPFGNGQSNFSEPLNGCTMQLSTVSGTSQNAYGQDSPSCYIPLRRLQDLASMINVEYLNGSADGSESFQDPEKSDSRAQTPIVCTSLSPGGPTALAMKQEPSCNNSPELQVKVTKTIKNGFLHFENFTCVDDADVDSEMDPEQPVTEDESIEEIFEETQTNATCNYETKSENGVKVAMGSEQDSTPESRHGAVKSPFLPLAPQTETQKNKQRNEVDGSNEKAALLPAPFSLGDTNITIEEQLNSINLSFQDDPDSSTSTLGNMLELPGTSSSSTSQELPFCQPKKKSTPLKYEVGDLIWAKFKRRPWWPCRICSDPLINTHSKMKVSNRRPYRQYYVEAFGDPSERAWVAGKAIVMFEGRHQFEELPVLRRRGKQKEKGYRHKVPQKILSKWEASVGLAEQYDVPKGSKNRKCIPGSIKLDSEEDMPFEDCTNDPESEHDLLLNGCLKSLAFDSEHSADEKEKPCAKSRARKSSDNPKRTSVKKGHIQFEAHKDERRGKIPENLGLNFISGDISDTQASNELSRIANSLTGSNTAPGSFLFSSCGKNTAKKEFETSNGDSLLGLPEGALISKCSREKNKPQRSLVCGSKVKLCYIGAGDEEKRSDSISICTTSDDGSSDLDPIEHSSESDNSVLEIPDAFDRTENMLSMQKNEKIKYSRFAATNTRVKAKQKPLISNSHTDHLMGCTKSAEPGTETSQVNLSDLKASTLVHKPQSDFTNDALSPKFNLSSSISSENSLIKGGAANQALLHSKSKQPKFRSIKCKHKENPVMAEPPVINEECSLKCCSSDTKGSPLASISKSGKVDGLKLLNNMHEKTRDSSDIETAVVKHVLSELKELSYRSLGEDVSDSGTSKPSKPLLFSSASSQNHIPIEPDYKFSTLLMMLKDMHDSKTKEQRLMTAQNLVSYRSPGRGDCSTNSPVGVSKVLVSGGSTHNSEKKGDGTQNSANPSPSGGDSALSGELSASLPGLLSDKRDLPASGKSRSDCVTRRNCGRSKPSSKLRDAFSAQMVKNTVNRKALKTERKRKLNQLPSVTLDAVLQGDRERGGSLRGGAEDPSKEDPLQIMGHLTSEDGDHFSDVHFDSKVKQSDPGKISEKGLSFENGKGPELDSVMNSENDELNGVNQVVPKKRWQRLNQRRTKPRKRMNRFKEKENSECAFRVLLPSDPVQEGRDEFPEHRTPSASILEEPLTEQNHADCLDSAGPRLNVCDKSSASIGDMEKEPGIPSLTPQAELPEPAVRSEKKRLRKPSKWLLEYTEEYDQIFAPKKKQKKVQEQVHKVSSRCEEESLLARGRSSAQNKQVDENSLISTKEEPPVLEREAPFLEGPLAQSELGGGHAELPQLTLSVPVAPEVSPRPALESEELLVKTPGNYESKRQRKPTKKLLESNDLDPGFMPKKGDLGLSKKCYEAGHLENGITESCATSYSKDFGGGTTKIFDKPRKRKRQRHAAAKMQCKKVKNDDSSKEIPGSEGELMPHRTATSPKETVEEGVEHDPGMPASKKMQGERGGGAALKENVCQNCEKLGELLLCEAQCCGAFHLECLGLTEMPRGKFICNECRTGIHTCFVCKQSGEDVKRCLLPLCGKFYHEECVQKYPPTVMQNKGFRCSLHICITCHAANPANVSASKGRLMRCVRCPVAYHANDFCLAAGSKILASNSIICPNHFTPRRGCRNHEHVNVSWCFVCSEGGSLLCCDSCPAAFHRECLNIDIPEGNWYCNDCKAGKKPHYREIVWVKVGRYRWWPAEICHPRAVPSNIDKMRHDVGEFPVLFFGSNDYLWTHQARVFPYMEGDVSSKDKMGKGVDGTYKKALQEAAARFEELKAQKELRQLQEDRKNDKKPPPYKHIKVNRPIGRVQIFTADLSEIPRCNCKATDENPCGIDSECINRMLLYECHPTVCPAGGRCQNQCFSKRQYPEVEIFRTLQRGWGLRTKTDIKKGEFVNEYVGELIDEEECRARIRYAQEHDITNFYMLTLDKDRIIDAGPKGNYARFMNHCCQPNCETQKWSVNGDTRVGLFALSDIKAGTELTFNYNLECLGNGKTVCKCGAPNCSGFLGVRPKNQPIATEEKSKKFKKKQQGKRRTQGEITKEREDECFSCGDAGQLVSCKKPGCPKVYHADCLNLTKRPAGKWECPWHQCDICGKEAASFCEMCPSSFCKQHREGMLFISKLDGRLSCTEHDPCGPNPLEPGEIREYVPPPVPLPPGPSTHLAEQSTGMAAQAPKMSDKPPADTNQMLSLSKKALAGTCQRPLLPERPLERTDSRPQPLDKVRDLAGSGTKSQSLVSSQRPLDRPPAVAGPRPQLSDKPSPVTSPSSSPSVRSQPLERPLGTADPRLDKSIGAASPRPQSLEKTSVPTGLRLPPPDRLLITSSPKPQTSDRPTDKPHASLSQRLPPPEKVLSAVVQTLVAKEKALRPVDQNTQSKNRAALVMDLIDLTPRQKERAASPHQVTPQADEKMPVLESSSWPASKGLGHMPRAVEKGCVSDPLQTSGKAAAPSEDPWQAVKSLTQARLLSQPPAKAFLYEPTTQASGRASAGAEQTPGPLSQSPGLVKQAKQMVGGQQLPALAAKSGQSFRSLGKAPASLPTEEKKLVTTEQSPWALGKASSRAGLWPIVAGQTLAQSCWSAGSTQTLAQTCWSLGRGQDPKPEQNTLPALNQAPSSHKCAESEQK

[5] = molecular target: Glutamate receptor 1 (Homo sapiens) (UniProt P42261); test: Selectivity interaction (Eurofins CEREP Diversity Profile (receptors and ion channels)) EUB0000279b GRIA1; details: at 10 µM
[6] = molecular target: Calcium/calmodulin-dependent protein kinase type 1 (Homo sapiens) (UniProt Q14012); test: Selectivity interaction (ActivX KiNativ screen (kinase selectivity in THP-1 cell lysates)) EUB0000639a CAMK1; assay type: subcellular; details: lysate, at 0.2 µM
[7] = molecular target: Serine/threonine-protein kinase RIO2 (Homo sapiens) (UniProt Q9BVS4); test: Selectivity interaction (KinomeScan (DiscoverX)) EUB0000595a RIOK2; details: at 10 µM
Serine/threonine-protein kinase RIO2 (Homo sapiens), sequence (Q9BVS4 whole entry, looked up): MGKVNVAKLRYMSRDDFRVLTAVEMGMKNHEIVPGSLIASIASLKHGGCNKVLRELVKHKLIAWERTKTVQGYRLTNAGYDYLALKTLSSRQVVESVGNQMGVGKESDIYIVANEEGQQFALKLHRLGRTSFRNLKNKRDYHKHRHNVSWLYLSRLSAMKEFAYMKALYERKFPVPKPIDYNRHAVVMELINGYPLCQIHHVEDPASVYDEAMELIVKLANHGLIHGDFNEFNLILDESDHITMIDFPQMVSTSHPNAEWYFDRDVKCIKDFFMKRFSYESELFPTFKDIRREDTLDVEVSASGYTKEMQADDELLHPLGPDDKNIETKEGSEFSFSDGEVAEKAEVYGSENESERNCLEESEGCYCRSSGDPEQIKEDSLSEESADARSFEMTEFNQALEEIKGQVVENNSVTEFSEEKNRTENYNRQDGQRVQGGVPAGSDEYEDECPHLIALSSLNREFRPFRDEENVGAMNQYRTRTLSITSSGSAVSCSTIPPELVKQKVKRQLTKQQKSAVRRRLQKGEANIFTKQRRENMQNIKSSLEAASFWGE

[8] = molecular target: Macrophage-stimulating protein receptor (Homo sapiens, UniProt Q04912); test: Selectivity interaction (KinomeScan (DiscoverX)) EUB0000092b MST1R; details: at 10 µM
[9] = molecular target: Serine/threonine-protein kinase WNK1 (Homo sapiens) (UniProt Q9H4A3); test: Selectivity interaction (Ambit KINOMEscan and KiNATiv profiling in Jurkat cells) EUB0000090b WNK1; assay type: cell-based; details: at 1 µM
[10] = molecular target: Cyclin-dependent kinase 7 (Homo sapiens, UniProt P50613); test: Selectivity interaction (KinomeScan (DiscoverX)) EUB0000045b CDK7
Cyclin-dependent kinase 7, sequence (P50613 whole entry): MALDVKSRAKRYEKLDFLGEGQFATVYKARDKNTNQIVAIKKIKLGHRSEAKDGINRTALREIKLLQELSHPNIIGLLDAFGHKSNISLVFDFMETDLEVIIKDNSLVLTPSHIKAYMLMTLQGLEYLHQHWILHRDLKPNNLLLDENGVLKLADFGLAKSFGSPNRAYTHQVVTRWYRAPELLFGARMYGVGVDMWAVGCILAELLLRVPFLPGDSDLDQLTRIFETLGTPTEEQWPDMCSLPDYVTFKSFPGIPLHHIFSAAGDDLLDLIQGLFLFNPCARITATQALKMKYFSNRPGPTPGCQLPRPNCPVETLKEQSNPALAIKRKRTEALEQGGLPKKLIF

[11] = molecular target: T2, Ephrin type-B receptor 6 (Homo sapiens) (UniProt O15197); details: at 10 µM
T2 sequence (whole entry): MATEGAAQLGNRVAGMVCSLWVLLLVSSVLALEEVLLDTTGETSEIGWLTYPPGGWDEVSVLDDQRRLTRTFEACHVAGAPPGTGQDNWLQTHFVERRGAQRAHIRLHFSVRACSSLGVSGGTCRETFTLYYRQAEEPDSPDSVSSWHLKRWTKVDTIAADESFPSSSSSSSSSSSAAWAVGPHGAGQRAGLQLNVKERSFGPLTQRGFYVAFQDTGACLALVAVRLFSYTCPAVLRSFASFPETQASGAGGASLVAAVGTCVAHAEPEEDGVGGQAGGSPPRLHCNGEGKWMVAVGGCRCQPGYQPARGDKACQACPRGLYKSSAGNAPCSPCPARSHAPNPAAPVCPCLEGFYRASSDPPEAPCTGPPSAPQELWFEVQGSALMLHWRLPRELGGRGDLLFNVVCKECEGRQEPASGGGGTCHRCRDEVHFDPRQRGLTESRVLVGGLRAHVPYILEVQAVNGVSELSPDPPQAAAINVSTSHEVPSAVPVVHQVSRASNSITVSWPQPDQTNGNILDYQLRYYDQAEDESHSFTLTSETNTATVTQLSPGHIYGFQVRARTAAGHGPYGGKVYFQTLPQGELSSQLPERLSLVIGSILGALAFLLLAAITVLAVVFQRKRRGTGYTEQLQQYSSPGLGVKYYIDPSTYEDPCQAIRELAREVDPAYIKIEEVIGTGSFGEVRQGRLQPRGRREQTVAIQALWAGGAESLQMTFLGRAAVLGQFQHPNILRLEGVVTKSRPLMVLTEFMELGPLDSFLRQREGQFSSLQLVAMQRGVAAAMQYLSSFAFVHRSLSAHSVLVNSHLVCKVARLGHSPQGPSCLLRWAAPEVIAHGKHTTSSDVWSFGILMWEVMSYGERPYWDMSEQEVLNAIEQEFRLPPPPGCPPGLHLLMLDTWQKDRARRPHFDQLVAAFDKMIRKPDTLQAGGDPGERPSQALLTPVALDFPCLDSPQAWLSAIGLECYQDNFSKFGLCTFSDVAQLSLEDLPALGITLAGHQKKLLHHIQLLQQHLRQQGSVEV

[12] = molecular target: Cyclin-dependent kinase 2 (Homo sapiens, UniProt P24941); test: Selectivity interaction (ActivX KiNativ screen (ex vivo kinase selectivity in human PBMCs)) EUB0001619a CDK2; assay type: cell-based; details: PBMC, at 1 µM
[13] = molecular target: Serine/threonine-protein kinase PAK 3 (Homo sapiens) (UniProt O75914); test: Selectivity interaction (Upstate Kinase Profiler service (Millipore)) EUB0000056c PAK3; details: at 1 µM
Serine/threonine-protein kinase PAK 3 (Homo sapiens), sequence (O75914 whole entry, looked up): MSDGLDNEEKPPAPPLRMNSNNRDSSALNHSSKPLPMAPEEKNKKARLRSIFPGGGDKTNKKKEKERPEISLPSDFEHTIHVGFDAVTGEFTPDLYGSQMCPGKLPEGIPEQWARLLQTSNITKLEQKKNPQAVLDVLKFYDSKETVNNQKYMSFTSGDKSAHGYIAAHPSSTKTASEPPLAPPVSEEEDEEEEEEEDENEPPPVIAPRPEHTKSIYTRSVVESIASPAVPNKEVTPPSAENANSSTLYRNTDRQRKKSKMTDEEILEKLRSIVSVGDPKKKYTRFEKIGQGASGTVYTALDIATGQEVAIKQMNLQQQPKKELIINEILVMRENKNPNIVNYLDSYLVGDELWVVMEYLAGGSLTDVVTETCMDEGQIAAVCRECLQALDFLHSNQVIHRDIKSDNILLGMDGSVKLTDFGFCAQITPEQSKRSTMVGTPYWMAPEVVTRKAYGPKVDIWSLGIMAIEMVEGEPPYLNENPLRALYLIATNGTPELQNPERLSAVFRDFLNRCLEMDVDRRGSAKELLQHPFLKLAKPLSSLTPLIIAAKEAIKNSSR

[14] = molecular target: Cyclin-dependent kinase 18 (Homo sapiens) (UniProt Q07002); test: Selectivity interaction (KinomeScan (DiscoverX)) EUB0000655a CDK18; details: at 10 µM
[15] = molecular target: T3, Dual specificity mitogen-activated protein kinase kinase 3 (Homo sapiens) (UniProt P46734); test: Selectivity interaction (KinomeScan (DiscoverX)) EUB0000607a MAP2K3; details: at 10 µM
T3 sequence (whole entry): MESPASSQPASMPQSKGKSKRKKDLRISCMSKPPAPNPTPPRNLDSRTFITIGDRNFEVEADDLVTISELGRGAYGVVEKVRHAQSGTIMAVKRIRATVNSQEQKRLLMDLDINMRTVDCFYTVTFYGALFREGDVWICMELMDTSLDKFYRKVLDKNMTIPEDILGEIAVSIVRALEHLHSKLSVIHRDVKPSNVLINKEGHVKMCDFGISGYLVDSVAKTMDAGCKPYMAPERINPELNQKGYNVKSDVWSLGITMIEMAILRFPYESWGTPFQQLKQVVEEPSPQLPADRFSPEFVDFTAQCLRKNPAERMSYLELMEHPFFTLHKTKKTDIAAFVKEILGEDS

[16] = molecular target: Non-receptor tyrosine-protein kinase TYK2 (Homo sapiens, UniProt P29597); test: Selectivity interaction (KinomeScan (DiscoverX)) EUB0000607a TYK2; details: at 10 µM
[17] = molecular target: High affinity nerve growth factor receptor (Homo sapiens, UniProt P04629); test: Selectivity interaction (SelectScreen profiling (Invitrogen)) EUB0000607a NTRK1; details: at 2 µM
[18] = molecular target: Serine/threonine-protein kinase MRCK beta (Homo sapiens) (UniProt Q9Y5S2); test: Selectivity interaction (Kinase panel (Z-LYTE Assay)) EUB0001632a CDC42BPB; details: at 10 µM

COc1cc(Nc2nc(C)cc(-c3cnn4nc(OC)ccc34)n2)cc(C(F)(F)F)c1
% of control [1]: 84%

O=C(NOC[C@H](O)CO)c1ccc(F)c(F)c1Nc1ccc(I)cc1F
% of control [2]: 77%
% of control [3]: 100%

CNCCN1CCC(c2cc(CN(C)C(=O)c3cccc(Oc4ccccc4)c3)ccn2)CC1
% activity [4]: > 90%

CC(=O)c1cc(-c2ccccc2OCC2CC2)c2ncccn12
% of control [5]: 93%

CC[C@@H]1[C@H](F)C(=O)N[C@@H]1COc1nccc2cc(C(N)=O)c(OC)cc12 [ZIMLOVISERTIB]
% of inhibition [6]: -2.3%

COCC(=O)NC/C=C/c1ccc2ncnc(Nc3ccc(Oc4ccc(C)nc4)c(C)c3)c2c1 [CP-724714]
% of control [7]: 100%

CCC(=O)N1CCN(c2ccc(-n3c(=O)ccc4cnc5ccc(-c6cnc7ccccc7c6)cc5c43)cc2C(F)(F)F)CC1
% of control [8]: 55%

CN(C)C/C=C/C(=O)Nc1ccc(C(=O)N2CCCC(Nc3ncc(Cl)c(-c4c[nH]c5ccccc45)n3)C2)cc1 (centres undefined)
% of control [9]: 80%

C=CC(=O)Nc1cc(-n2c(=O)ccc3cnc4ccc(-c5ccc(NS(C)(=O)=O)cc5)cc4c32)ccc1C
% of control ([10]; at 1 µM): 79%
% of control ([10]; at 10 µM): 26%

Cc1cc([C@@H](C)Nc2ccccc2C(=O)O)c2nc(N3CCOCC3)cc(=O)n2c1 [AZD-6482]
% of control [11]: 41%

N#Cc1cccc(-c2c[nH]c3ncnc(N4CCOCC4)c23)c1
% of inhibition [12]: 9%

Cc1ccc(-c2ccc3c(ccc4sc5c(c43)NC[C@@H](C)NC5=O)n2)cn1
% of inhibition [13]: 37%

CN(C)CCOc1ccc(-c2nc(-c3ccncc3)c(-c3ccc4c(c3)CC/C4=N\O)[nH]2)cc1
% of control [14]: 100%

CNC(=O)Nc1ccc(-c2nc(N3CC4CCC(C3)O4)c3cnn(C4CCC5(CC4)OCCO5)c3n2)cc1
% of control [15]: 89%
% of control [16]: 100%
% of inhibition [17]: 7%

Cn1cc(-n2cnc3c(NCc4nc5cc(Cl)c(Cl)cc5[nH]4)nc(N4CCOCC4)nc32)cn1
% of control [18]: 3.7%

From ChEMBL document CHEMBL5465560, “Selectivity Literature for EUbOPEN Chemogenomic Library” (2024)
